Assay results as given in patent US7943340B2, “Fungal dipeptidyl peptidase IV (DPPIV) enzyme for reagent use” (priority 2003, dated 2011).
Read-outs that look alike come from different tables or passages of the source.

Columns and labels:
ruLAP2 = ruLAP2 (Trichophyton rubrum, UniProt Q5QHG6); format: biochemical; details: for effect of inhibitor on ruLAP2 activity: Leu-AMC 5 mM, inhibitor concentrations
Protocol: (§1) Inhibitors and metallic cations were pre-incubated with the enzymes for 15 min at 37° C. Then, Leu-AMC at a 5 mM final concentration was added. After further incubation for 60 min, enzyme activity was measured as described above. The inhibitors and their concentrations tested purified LAPs were: 500 μM amastatin (Bachem), 40 μM benzamidine (Sigma), 500 μM bestatin (Bachem), 5 mM/l mM EDTA (Sigma). 100 μM E-64 (L-trans-epoxysuccinyl-leu-4-guanidinobutylamide) (Bachem), 100 μM leupeptin (Sigma), 5 mM/1 mM ortho-phenanthroline (Sigma), 500 μM p-chloromercuribenzoic acid (Sigma), 100 μM pepstatin A (Sigma), 40 μM PMSF (Sigma), 20 μM TLCK (Roche Diagnostics), and 20 μM TPCK (Roche Diagnostics).

fuLAP2 = format: biochemical, Aspergillus fumigatus; details: for fuLAP2 hydrolytic activity, percentage of control without any cation / fuLAP2 hydrolytic activity, percentage of control without inhibitor: Leu-MCA substrate; for fuLAP2 hydrolytic activity, percentage of control without inhibitor: inhibitor 100 μM
Protocol: as §1

[1] = target: T1, pkLAP (microsomal LAP from porcine kidney) (Sus scrofa, UniProt P15145); assay: Effect of chemical reagents (inhibitors, metallic cations) on LAP activity with Leu-AMC; format: biochemical
T1 construct: purchased Sigma; host or cells: porcine kidney
T1 sequence (P15145 1-963): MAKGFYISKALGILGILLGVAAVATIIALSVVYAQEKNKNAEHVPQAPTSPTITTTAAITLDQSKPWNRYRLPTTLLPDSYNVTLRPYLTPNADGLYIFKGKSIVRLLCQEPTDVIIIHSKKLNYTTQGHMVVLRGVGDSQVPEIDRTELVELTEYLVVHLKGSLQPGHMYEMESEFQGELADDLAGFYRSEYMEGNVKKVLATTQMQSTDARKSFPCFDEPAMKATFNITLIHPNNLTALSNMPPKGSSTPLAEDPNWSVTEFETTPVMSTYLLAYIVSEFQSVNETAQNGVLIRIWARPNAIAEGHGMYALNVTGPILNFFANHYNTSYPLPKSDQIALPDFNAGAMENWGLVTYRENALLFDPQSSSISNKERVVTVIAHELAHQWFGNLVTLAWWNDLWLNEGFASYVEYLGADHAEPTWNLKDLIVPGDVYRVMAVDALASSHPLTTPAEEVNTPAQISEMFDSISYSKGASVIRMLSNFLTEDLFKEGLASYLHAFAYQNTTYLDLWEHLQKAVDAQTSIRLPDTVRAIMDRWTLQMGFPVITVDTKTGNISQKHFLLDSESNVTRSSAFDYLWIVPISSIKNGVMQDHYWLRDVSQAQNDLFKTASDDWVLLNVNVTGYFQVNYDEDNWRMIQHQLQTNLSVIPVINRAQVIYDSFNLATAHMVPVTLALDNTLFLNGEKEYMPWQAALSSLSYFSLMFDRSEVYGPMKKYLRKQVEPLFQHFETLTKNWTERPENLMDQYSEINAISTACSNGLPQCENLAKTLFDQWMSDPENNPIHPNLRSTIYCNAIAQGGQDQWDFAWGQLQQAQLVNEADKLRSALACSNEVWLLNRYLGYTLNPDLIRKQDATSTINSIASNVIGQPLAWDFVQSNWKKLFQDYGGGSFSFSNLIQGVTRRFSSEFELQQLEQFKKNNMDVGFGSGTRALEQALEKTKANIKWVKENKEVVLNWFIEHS
Protocol: as §1

fuLAP1 = fuLAP1 (Aspergillus fumigatus, UniProt Q5VJG6); format: biochemical
Chain of fuLAP1 (Q5VJG6 15-388, looked up, natural form): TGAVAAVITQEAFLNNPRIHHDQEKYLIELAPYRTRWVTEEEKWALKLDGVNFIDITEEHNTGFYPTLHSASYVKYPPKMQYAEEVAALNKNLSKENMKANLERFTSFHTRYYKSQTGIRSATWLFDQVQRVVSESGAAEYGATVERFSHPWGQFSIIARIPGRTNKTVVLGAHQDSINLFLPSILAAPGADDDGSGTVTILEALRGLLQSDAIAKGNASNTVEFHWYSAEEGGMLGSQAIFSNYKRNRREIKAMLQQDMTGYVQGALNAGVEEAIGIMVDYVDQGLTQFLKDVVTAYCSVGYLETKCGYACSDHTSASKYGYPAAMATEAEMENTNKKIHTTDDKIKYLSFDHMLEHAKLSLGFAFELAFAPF
Protocol: as §1

ruLAP1 = ruLAP1 (Trichophyton rubrum, UniProt Q5QHG5); format: biochemical
Chain of ruLAP1 (Q5QHG5 19-373): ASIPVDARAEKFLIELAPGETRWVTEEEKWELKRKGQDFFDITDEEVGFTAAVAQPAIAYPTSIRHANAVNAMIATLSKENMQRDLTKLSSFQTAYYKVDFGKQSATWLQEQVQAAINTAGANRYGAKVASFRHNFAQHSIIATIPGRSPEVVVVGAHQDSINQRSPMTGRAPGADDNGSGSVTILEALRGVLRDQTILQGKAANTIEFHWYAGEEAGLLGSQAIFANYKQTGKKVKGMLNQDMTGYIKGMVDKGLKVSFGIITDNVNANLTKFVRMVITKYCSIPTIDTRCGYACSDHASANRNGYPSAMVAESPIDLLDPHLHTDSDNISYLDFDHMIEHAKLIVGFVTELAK
Protocol: as §1

[2] = test system: all the LAPs tested (ruLAP1, ruLAP2, fuLAP1, fuLAP2, pkLAP); format: biochemical; details: Leu-AMC 5 mM; amastatin 500 μM; ortho-phenantroline 1 and 5 mM; others as
Protocol: as §1

[3] = cation salt 0.5 mM, Leu-MCA substrate
[4] = cation salt 1 mM, Leu-MCA substrate
[5] = inhibitor 100 μM, Leu-MCA substrate

Chain of ruLAP2 (Q5QHG6 22-495): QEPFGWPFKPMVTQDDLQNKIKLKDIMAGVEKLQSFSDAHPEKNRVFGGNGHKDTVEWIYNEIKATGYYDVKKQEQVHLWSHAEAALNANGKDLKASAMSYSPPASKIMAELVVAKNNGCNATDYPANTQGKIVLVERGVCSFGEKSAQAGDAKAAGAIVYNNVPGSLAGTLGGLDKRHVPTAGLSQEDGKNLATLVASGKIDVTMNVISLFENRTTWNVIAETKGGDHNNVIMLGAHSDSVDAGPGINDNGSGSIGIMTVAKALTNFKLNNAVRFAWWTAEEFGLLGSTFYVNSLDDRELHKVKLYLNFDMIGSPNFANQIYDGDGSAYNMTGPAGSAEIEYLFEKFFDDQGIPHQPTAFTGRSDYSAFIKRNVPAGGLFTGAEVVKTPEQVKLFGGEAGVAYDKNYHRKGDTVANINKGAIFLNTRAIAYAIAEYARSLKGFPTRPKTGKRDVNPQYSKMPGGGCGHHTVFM

| SMILES | fuLAP2 hydrolytic activity, percentage of control without any cation (fuLAP2; cation salt 0.5 mM) [%] | fuLAP2 hydrolytic activity, percentage of control without any cation (fuLAP2; cation salt 1 mM) [%] | pkLAP hydrolytic activity, percentage of control without any cation [1, 3] [%] | pkLAP hydrolytic activity, percentage of control without any cation [1, 4] [%] | fuLAP1 hydrolytic activity, percentage of control without any cation (fuLAP1; [3]) [%] | fuLAP1 hydrolytic activity, percentage of control without any cation (fuLAP1; [4]) [%] | ruLAP2 hydrolytic activity, percentage of control without any cation (ruLAP2; [3]) [%] | ruLAP2 hydrolytic activity, percentage of control without any cation (ruLAP2; [4]) [%] | further results |
| --- | --- | --- | --- | --- | --- | --- | --- | --- | --- |
| CC(C)C[C@H](NC(=O)[C@H]1O[C@@H]1C(=O)O)C(=O)NCCCCN=C(N)N (relative stereo) [E64, L-trans-epoxysuccinyl-leu-4-guanidinobutylamide] | – | – | – | – | – | – | – | – | effect of inhibitor on ruLAP2 activity (ruLAP2): blunted the activity |
| [Ca+2].[Cl-].[Cl-] [CaCl2] | 110.0 | 165.4 | 177.4 | 161.8 | 54.9 | 43.3 | 126.6 | 141.9 | ruLAP1 hydrolytic activity, percentage of control without any cation (ruLAP1; [3]): 151.7%; ruLAP1 hydrolytic activity, percentage of control without any cation (ruLAP1; [4]): 175.6% |
| [Ca+2] [Ca^++] | – | – | – | – | – | – | – | – | effect of divalent cation on fuLAP2 activity (fuLAP2; Leu-AMC substrate): activated; effect of divalent cation on fuLAP1 activity (fuLAP1; Leu-AMC substrate): inhibited |
| [Cl][Cu][Cl] [Cu^++, CuCl2] | 68.9 | 73.6 | 1422.0 | 1092.4 | 25.8 | 17.0 | 50.9 | 34.7 | effect of divalent cation on pkLAP activity ([1]; Leu-AMC substrate): highly activated |
| CC(C)C[C@H](NC(=O)[C@H]1O[C@@H]1C(=O)O)C(=O)NCCCCN=C(N)N [E 64] | – | – | – | – | – | – | – | – | fuLAP2 hydrolytic activity, percentage of control without inhibitor (fuLAP2): 71%; pkLAP hydrolytic activity, percentage of control without inhibitor [1, 5]: 93%; fuLAP1 hydrolytic activity, percentage of control without inhibitor (fuLAP1; [5]): 190%; ruLAP1 hydrolytic activity, percentage of control without inhibitor (ruLAP1; [5]): 103%; ruLAP2 hydrolytic activity, percentage of control without inhibitor (ruLAP2; [5]): 34% |
| O=C(O)CN(CCN(CC(=O)O)CC(=O)O)CC(=O)O [EDTA] | – | – | – | – | – | – | – | – | effect of inhibitor on ruLAP1 activity (ruLAP1; Leu-AMC 5 mM, inhibitor concentrations, pepstatin 0.1 mM): more sensitive; effect of inhibitor on ruLAP2 activity (ruLAP2): more sensitive |
| CC(=O)N[C@@H](CC(C)C)C(=O)N[C@@H](CC(C)C)C(=O)N[C@H](C=O)CCCNC(=N)N [Leupeptin, leupeptin] | – | – | – | – | – | – | – | – | fuLAP2 hydrolytic activity, percentage of control without inhibitor (fuLAP2): 61%; effect of inhibitor on all the LAPs tested [2]: no clear inhibitory effects |
| [Cl-].[Cl-].[Mg+2] [MgCl2] | 97.6 | 108.0 | 130.1 | 146.1 | 68.5 | 72.6 | 121.2 | 110.2 | ruLAP1 hydrolytic activity, percentage of control without any cation (ruLAP1; [3]): 129.9%; ruLAP1 hydrolytic activity, percentage of control without any cation (ruLAP1; [4]): 132.6% |
